Laboratory results as given in patent US20230045509A1, “PHARMACEUTICAL COMPOSITIONS COMPRISING CABOTEGRAVIR” (ViiV Healthcare Company, priority 2019, published 2023).

Columns and labels:
[1] = Wettability study to define limits of cabotegravir suspension strength; assay type: physicochemical
Method: Wettability of Cabotegravir in 38 mg/mL P338, 35 mg/mL PEG3350, and 20 mg/mL mannitol was assessed to estimate the approximate concentration limit for Cabotegravir suspension in this vehicle. This was performed by adding increasing amounts of Cab to 5 g of vehicle until a gross change in coarse suspension properties was observed.

HIV-1 strains = settings: integrase strand transfer inhibitor; background statement; cited from earlier work

For `C[C@H]1CO[C@@H]2Cn3cc(C(=O)NCc4ccc(F)cc4F)c(=O)c(O)c3C(=O)N12` [Cabotegravir, N-((2,4-Difluorophenyl)methyl)-6-hydroxy-3-methyl-5,7-dioxo-2,3,5,7,11,11a hexahydro(1,3)oxazolo(3,2-a)pyrido(1,2-d)pyrazine-8-carboxamide], the Gross viscosity ([1]; 580† mg/mL Cabotegravir (calculated using approximated densities) in same vehicle) was “Boundary of thickening”, the Gross viscosity ([1]; 600† mg/mL Cabotegravir (calculated using approximated densities) in same vehicle) was “Thicker, but flowable” and the Gross viscosity ([1]; 635† mg/mL Cabotegravir (calculated using approximated densities) in same vehicle) was “Slightly paste-like”. For the same compound, the “upper boundary of Cabotegravir solid suspension concentration” value ([1]; vehicle 38 mg/mL P338, 35 mg/mL PEG3350, 20 mg/mL mannitol) was no more than 600 mg/mL and the potency (HIV-1 strains) was “subnanomolar potency”.
